Results as given in patent US4808411A, “Antibiotic-polymer compositions” (Abbott Laboratories, priority 1987, dated 1989).
Converted amounts (≈) assume the structure as drawn.

Assays:
[1] = Solubility of drug after stirring material providing approx. 20 mg/mL active drug for 24 hours in water (buffer for pure drugs); assay type: physicochemical
[2] = Bioavailability of 6-O-methylerythromycin in dogs (Example 12); assay type: in vivo; conditions: dog, blood, po, 250 mg 6-O-methylerythromycin, fasted, histamine
Description: All dogs were fasted overnight, and histamine was administered one hour prior to dosing with the test composition. […] Blood samples were drawn and assayed using a standard microbiological assay. All dogs were fed 12 hours after dosing.

SMILES	solubility at 24 h ([1]; pH 7.72, aqueous buffer)	solubility at 24 h ([1]; pH 8.24, aqueous buffer)	solubility at 24 h ([1]; pH 6.2, aqueous buffer)	solubility at 24 h ([1]; pH 7, aqueous buffer)	solubility at 24 h ([1]; pH 7.98, aqueous buffer)	AUC(0-t) at 8 h [2]	Cmax [2]	Tmax [2]
CC[C@H]1OC(=O)[C@H](C)[C@@H](O[C@H]2C[C@@](C)(OC)[C@@H](O)[C@H](C)O2)[C@H](C)[C@@H](O[C@@H]2O[C@H](C)C[C@H](N(C)C)[C@H]2O)[C@](C)(O)C[C@@H](C)C(=O)[C@H](C)[C@@H](O)[C@]1(C)O [Erythromycin, erythromycin]	12200 µg/mL (≈ 16600 µM)	2120 µg/mL (≈ 2890 µM)						
CC[C@H]1OC(=O)[C@H](C)[C@@H](O[C@H]2C[C@@](C)(OC)[C@@H](O)[C@H](C)O2)[C@H](C)[C@@H](O[C@@H]2O[C@H](C)C[C@H](N(C)C)[C@H]2O)[C@](C)(OC)C[C@@H](C)C(=O)[C@H](C)[C@@H](O)[C@]1(C)O [6-O--Methyl-ery, 6-O-methylerythromycin]			7000 µg/mL (≈ 9360 µM)	1650 µg/mL (≈ 2210 µM)	134 µg/mL (≈ 179 µM)	43500 ng·h/mL	5370 ng/mL	1.33 h
